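In this assay, cells in 96-well plates receive the compound at five concentrations for 48 hours. Endpoints are linearly interpolated between the surrounding concentrations. Here, GI50 denotes the concentration required for 50% inhibition of growth. TGI: total growth inhibition.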
Key:
Experiment in all cases: NCI-60 cell line screen, 48 h
786-0 renal = tested on: 786-0 renal
A549 NSCLC = tested on: A549 NSCLC
ACHN renal = tested on: ACHN renal
BT-549 breast = tested on: BT-549 breast
CAKI-1 renal = tested on: CAKI-1 renal
CCRF-CEM leukemia = tested on: CCRF-CEM leukemia
COLO 205 colon = tested on: COLO 205 colon
DU-145 prostate = tested on: DU-145 prostate
EKVX NSCLC = tested on: EKVX NSCLC
HCT-116 colon = tested on: HCT-116 colon
HCT-15 colon = tested on: HCT-15 colon
HOP-62 NSCLC = tested on: HOP-62 NSCLC
HS 578T breast = tested on: HS 578T breast
HT29 colon = tested on: HT29 colon
IGROV1 ovarian = tested on: IGROV1 ovarian
K-562 leukemia = tested on: K-562 leukemia
KM12 colon = tested on: KM12 colon
LOX IMVI melanoma = tested on: LOX IMVI melanoma
M14 melanoma = tested on: M14 melanoma
MCF7 breast = tested on: MCF7 breast
MDA-MB-231 breast = tested on: MDA-MB-231 breast
MDA-MB-435 = tested on: MDA-MB-435
NCI-H226 lung = tested on: NCI-H226 lung
NCI-H23 lung = tested on: NCI-H23 lung
NCI-H460 lung = tested on: NCI-H460 lung
NCI-H522 lung = tested on: NCI-H522 lung
NCI/ADR-RES ovarian = tested on: NCI/ADR-RES ovarian
OVCAR-3 ovarian = tested on: OVCAR-3 ovarian
OVCAR-4 ovarian = tested on: OVCAR-4 ovarian
OVCAR-5 ovarian = tested on: OVCAR-5 ovarian
OVCAR-8 ovarian = tested on: OVCAR-8 ovarian
PC-3 prostate = tested on: PC-3 prostate
RPMI-8226 leukemia = tested on: RPMI-8226 leukemia
SF-268 CNS = tested on: SF-268 CNS
SF-295 CNS = tested on: SF-295 CNS
SK-MEL-2 melanoma = tested on: SK-MEL-2 melanoma
SK-MEL-28 melanoma = tested on: SK-MEL-28 melanoma
SK-MEL-5 melanoma = tested on: SK-MEL-5 melanoma
SK-OV-3 ovarian = tested on: SK-OV-3 ovarian
SN12C renal = tested on: SN12C renal
SNB-19 CNS = tested on: SNB-19 CNS
SNB-75 CNS = tested on: SNB-75 CNS
SW-620 colon = tested on: SW-620 colon
T-47D breast = tested on: T-47D breast
TK-10 renal = tested on: TK-10 renal
U251 CNS = tested on: U251 CNS
UACC-257 melanoma = tested on: UACC-257 melanoma
UACC-62 melanoma = tested on: UACC-62 melanoma
UO-31 renal = tested on: UO-31 renal

CC(=O)c1ccc(Nc2cc(-n3nnc4ccccc43)nc3ccccc23)cc1
GI50 (786-0 renal): 11.9 µM
TGI (786-0 renal): 30.1 µM
GI50 (A549 NSCLC): 32.3 µM
TGI (A549 NSCLC): > 100 µM
GI50 (ACHN renal): 13.2 µM
TGI (ACHN renal): 26.9 µM
GI50 (BT-549 breast): 16 µM
TGI (BT-549 breast): 66.2 µM
GI50 (CAKI-1 renal): 13.2 µM
TGI (CAKI-1 renal): 35.2 µM
GI50 (CCRF-CEM leukemia): 5.18 µM
TGI (CCRF-CEM leukemia): > 100 µM
GI50 (COLO 205 colon): 30.6 µM
TGI (COLO 205 colon): > 100 µM
GI50 (DU-145 prostate): 14.6 µM
TGI (DU-145 prostate): 82 µM
GI50 (EKVX NSCLC): 9.41 µM
TGI (EKVX NSCLC): 67.4 µM
GI50 (HCT-116 colon): 32.9 µM
TGI (HCT-116 colon): > 100 µM
GI50 (HCT-15 colon): > 100 µM
TGI (HCT-15 colon): > 100 µM
GI50 (HOP-62 NSCLC): 4.51 µM
TGI (HOP-62 NSCLC): 18.2 µM
GI50 (HS 578T breast): 9.02 µM
TGI (HS 578T breast): 28.8 µM
GI50 (HT29 colon): 12.9 µM
TGI (HT29 colon): > 100 µM
GI50 (IGROV1 ovarian): 55.7 µM
TGI (IGROV1 ovarian): > 100 µM
GI50 (K-562 leukemia): > 100 µM
TGI (K-562 leukemia): > 100 µM
GI50 (KM12 colon): 4.16 µM
TGI (KM12 colon): 25.6 µM
GI50 (LOX IMVI melanoma): 13.4 µM
TGI (LOX IMVI melanoma): > 100 µM
GI50 (M14 melanoma): 10.9 µM
TGI (M14 melanoma): 44.6 µM
GI50 (MCF7 breast): 36.3 µM
TGI (MCF7 breast): > 100 µM
GI50 (MDA-MB-231 breast): 4.41 µM
TGI (MDA-MB-231 breast): 35.7 µM
GI50 (MDA-MB-435): 19.7 µM
TGI (MDA-MB-435): 94.6 µM
GI50 (NCI-H226 lung): 14.8 µM
TGI (NCI-H226 lung): 59.4 µM
GI50 (NCI-H23 lung): 15.8 µM
TGI (NCI-H23 lung): 72.6 µM
GI50 (NCI-H460 lung): 29.1 µM
TGI (NCI-H460 lung): > 100 µM
GI50 (NCI-H522 lung): 35.4 µM
TGI (NCI-H522 lung): > 100 µM
GI50 (NCI/ADR-RES ovarian): 12 µM
TGI (NCI/ADR-RES ovarian): 46 µM
GI50 (OVCAR-3 ovarian): 14 µM
TGI (OVCAR-3 ovarian): 37.5 µM
GI50 (OVCAR-4 ovarian): 10.7 µM
TGI (OVCAR-4 ovarian): 61.9 µM
GI50 (OVCAR-5 ovarian): 26.2 µM
TGI (OVCAR-5 ovarian): > 100 µM
GI50 (OVCAR-8 ovarian): 7.83 µM
TGI (OVCAR-8 ovarian): 43.4 µM
GI50 (PC-3 prostate): 13.9 µM
TGI (PC-3 prostate): 72.4 µM
GI50 (RPMI-8226 leukemia): 2.5 µM
TGI (RPMI-8226 leukemia): 14 µM
GI50 (SF-268 CNS): 25.1 µM
TGI (SF-268 CNS): > 100 µM
GI50 (SF-295 CNS): 4.96 µM
TGI (SF-295 CNS): 13.6 µM
GI50 (SK-MEL-2 melanoma): 27.6 µM
TGI (SK-MEL-2 melanoma): > 100 µM
GI50 (SK-MEL-28 melanoma): 15.5 µM
TGI (SK-MEL-28 melanoma): > 100 µM
GI50 (SK-MEL-5 melanoma): 26.6 µM
TGI (SK-MEL-5 melanoma): 75.4 µM
GI50 (SK-OV-3 ovarian): 20.5 µM
TGI (SK-OV-3 ovarian): 43.4 µM
GI50 (SN12C renal): 6.24 µM
TGI (SN12C renal): 35.4 µM
GI50 (SNB-19 CNS): 47.6 µM
TGI (SNB-19 CNS): > 100 µM
GI50 (SNB-75 CNS): 19.6 µM
TGI (SNB-75 CNS): 60.5 µM
GI50 (SW-620 colon): > 100 µM
TGI (SW-620 colon): > 100 µM
GI50 (T-47D breast): 18.9 µM
TGI (T-47D breast): 87.1 µM
GI50 (TK-10 renal): 9.46 µM
TGI (TK-10 renal): 24.3 µM
GI50 (U251 CNS): 14.4 µM
TGI (U251 CNS): 44.1 µM
GI50 (UACC-257 melanoma): 45 µM
TGI (UACC-257 melanoma): > 100 µM
GI50 (UACC-62 melanoma): 14.5 µM
TGI (UACC-62 melanoma): 62.8 µM
GI50 (UO-31 renal): 23 µM
TGI (UO-31 renal): > 100 µM

From PubChem BioAssay (NCI)
